# Test results taken from US20260001914A1, “MACROCYCLIC PEPTIDES TARGETING KRAS” (Merck Sharp & Dohme LLC, priority 2022, published 2026).
# pEC50: −log10 of the molar value. *1 amine or outer side, *2 acyl side, *3 side chain or, on linkers, in order; H or OH if unused. Where a SMILES comes first, the peptide text is derived from it. Bridges are numbered along the chain shown (N, C = ends). [ ]: non-standard residue; d: D form. Phe(4-guanidino) = N=C(N)Nc1ccc(C[C@H](N)C(=O)O)cc1; Ala(pyrimidin-5-yl) = N[C@@H](Cc1cncnc1)C(=O)O; X6 = O=C([C@H](Cc1cnn(C2COC2)c1)N[*:1])[*:2]; NMePhe(4-F) = CN[C@@H](Cc1ccc(F)cc1)C(=O)O; Abu(4,4,4-F3) = N[C@@H](CC(F)(F)F)C(=O)O; NMeNva(5,5-F2) = CN[C@@H](CCC(F)F)C(=O)O; Phe(4-Cl) = N[C@@H](Cc1ccc(Cl)cc1)C(=O)O; X24 = O=C([C@H](Cc1ccncc1Cl)N[*:1])[*:2]; X62 = O=C([C@@H]1CC[C@H](N[*:1])C1)[*:2]; NMeArg(Me) = CNC(=N)NCCC[C@H](NC)C(=O)O; Phe(4-F) = N[C@@H](Cc1ccc(F)cc1)C(=O)O; 1Nal = N[C@@H](Cc1cccc2ccccc12)C(=O)O; NHCH2CH2SCH2CO = O=C(CSCCN[*:1])[*:2]; Phe(2-F) = N[C@@H](Cc1ccccc1F)C(=O)O; Abu(4,4-F2) = N[C@@H](CC(F)F)C(=O)O; NMe3Pal = CN[C@@H](Cc1cccnc1)C(=O)O; X1 = O=C(C12CC(CN[*:1])(C1)C2)[*:2]; Ala(cPr) = N[C@@H](CC1CC1)C(=O)O; NMeF = CN[C@@H](Cc1ccccc1)C(=O)O; PhLac = O=C(O)[C@@H](O)Cc1ccccc1; 3Pal = N[C@@H](Cc1cccnc1)C(=O)O; 4Pal = N[C@@H](Cc1ccncc1)C(=O)O; Ahp(2) = CCCCC[C@H](N)C(=O)O; Cba = N[C@@H](CC1CCC1)C(=O)O; hLeu = CC(C)CC[C@H](N)C(=O)O; αMeC = C[C@](N)(CS)C(=O)O; NMeA = CN[C@@H](C)C(=O)O; Nle = CCCC[C@H](N)C(=O)O
# Target: KRAS-G12D protein (Homo sapiens, UniProt P01116, G12D)
# Assay: SOS-mediated nucleotide exchange assay (BODIPY-GDP / Tb-streptavidin TR-FRET)
# Assay type: biochemical
# Conditions: not given
# Sequence of KRAS-G12D protein (P01116 1-188 isoform P01116-2 G12D): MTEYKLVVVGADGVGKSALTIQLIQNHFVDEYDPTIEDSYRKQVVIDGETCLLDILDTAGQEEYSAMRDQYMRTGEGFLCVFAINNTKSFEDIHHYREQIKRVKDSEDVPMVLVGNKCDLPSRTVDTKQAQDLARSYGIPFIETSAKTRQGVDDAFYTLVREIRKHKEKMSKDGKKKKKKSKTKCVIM
row,SMILES,pEC50
1,"CCCC[C@@H]1NC(=O)[C@H](Cc2ccncc2)NC(=O)[C@H](CCCNC(=N)N)NC(=O)[C@H](Cc2ccc(F)cc2)NC(=O)CSCCNC(=O)[C@H](Cc2ccccc2)N(C)C(=O)[C@H](CCCC)NC(=O)[C@H](Cc2ccc(OC)cc2)NC1=O [compound 90, cyclo(Phe4F-R-4Pal-Nle-TyrOMe-Nle-NMeF-Cysteamine-ClAc)] (cyclo([4Pal][Nle]Y(Me)[Nle][NMeF][NHCH2CH2SCH2CO][Phe(4-F)]R))",6.36
2,"CC(C)CC[C@@H]1NC(=O)[C@H](Cc2ccncc2Cl)NC(=O)[C@H](CC2CC2)NC(=O)[C@H](Cc2cncnc2)NC(=O)[C@H](C)N(C)C(=O)[C@H](Cc2ccccc2)OC(=O)C23CC(CNC(=O)[C@H](Cc4ccccc4)N(C)C1=O)(C2)C3 [compound 298, cyclo(FLac-NMeA-PyrimAla-cPrA-4Pal2Cl-hL-NMeF-amBCP)] (cyclo([Ala(cPr)][X24][hLeu][NMeF][X1][PhLac][NMeA][Ala(pyrimidin-5-yl)]))",7.96
3,"CCCC[C@@H]1NC(=O)[C@H](CC(F)(F)F)NC(=O)[C@H](CC2CCC2)NC(=O)[C@H](Cc2cccnc2)NC(=O)[C@H](CCCNC(=N)N)NC(=O)[C@H](Cc2ccccc2)NC(=O)CSC[C@@](C)(C(N)=O)NC(=O)[C@H](Cc2ccccc2)N(C)C1=O [compound 54, cyclo(F-R-3Pal-cBuA-AbuF3-Nle-NMeF-aMeCl-ClAc)] ({CH2CO}-FR[3Pal][Cba][Abu(4,4,4-F3)][Nle][NMeF][αMeC]-NH2; thioether N-8)",6.07
4,"CCCC[C@@H]1NC(=O)[C@H](Cc2cccnc2)NC(=O)[C@H](C)N(C)C(=O)[C@H](Cc2cccnc2)NC(=O)C23CC(CNC(=O)[C@H](Cc4cccnc4)N(C)C(=O)[C@H](CCCC)NC(=O)[C@H](Cc4ccccc4F)NC1=O)(C2)C3 [compound 163, cyclo(3Pal-NMeA-3Pal-Nle-Phe2F-Nle-NMe3Pal-amBCP)] (cyclo([3Pal][NMeA][3Pal][Nle][Phe(2-F)][Nle][NMe3Pal][X1]))",5.51
5,"CCCC[C@@H]1NC(=O)[C@H](Cc2cncnc2)NC(=O)[C@H](C)N(C)C(=O)[C@H](Cc2ccccc2)OC(=O)C23CC(CNC(=O)[C@H](Cc4ccc(F)cc4)N(C)C(=O)[C@H](CCCC)NC(=O)[C@H](Cc4ccccc4F)NC1=O)(C2)C3 [compound 173, cyclo(FLac-NMeA-PyrimAla-Nle-Phe2F-Nle-NMePhe4F-amBCP)] (cyclo([NMeA][Ala(pyrimidin-5-yl)][Nle][Phe(2-F)][Nle][NMePhe(4-F)][X1][PhLac]))",7.90
6,"CCCC[C@@H]1NC(=O)[C@H](Cc2cnn(C3COC3)c2)NC(=O)[C@H](C)N(C)C(=O)[C@H](Cc2ccccc2)OC(=O)C23CC(CNC(=O)[C@H](Cc4ccccc4)N(C)C(=O)[C@H](CCCC)NC(=O)[C@H](Cc4ccccc4F)NC1=O)(C2)C3 [compound 317, cyclo(FLac-NMeA-AlaPyz1Ox-Nle-Phe2F-Nle-NMeF-amBCP)] (cyclo([NMeA][X6][Nle][Phe(2-F)][Nle][NMeF][X1][PhLac]))",7.64
7,"CC(C)CC[C@@H]1NC(=O)[C@H](Cc2ccccc2F)NC(=O)[C@H](CC2CC2)NC(=O)[C@H](Cc2cncnc2)NC(=O)[C@H](CCC(F)F)N(C)C(=O)[C@H](Cc2ccccc2)OC(=O)C23CC(CNC(=O)[C@H](Cc4ccccc4)N(C)C1=O)(C2)C3 [compound 217, cyclo(FLac-NMeNvaF2-PyrimAla-cPrA-Phe2F-hL-NMeF-amBCP)] (cyclo([Ala(cPr)][Phe(2-F)][hLeu][NMeF][X1][PhLac][NMeNva(5,5-F2)][Ala(pyrimidin-5-yl)]))",6.76
8,"CCCC[C@@H]1NC(=O)[C@H](Cc2cccnc2)NC(=O)[C@H](CCCNC(=N)N)NC(=O)[C@H](Cc2ccccc2)NC(=O)[C@@H]2CC[C@@H](C2)NC(=O)[C@H](Cc2ccccc2)N(C)C(=O)[C@H](CCCC)NC(=O)[C@H](Cc2ccc(OC)cc2)NC1=O [compound 203, cyclo(F-R-3Pal-Nle-TyrOMe-Nle-NMeF-bhcLeu)] (cyclo(FR[3Pal][Nle]Y(Me)[Nle][NMeF][X62]))",6.72
9,"CCCC[C@@H]1NC(=O)[C@H](Cc2cccnc2)NC(=O)[C@H](C)N(C)C(=O)[C@H](Cc2ccccc2)NC(=O)C23CC(CNC(=O)[C@H](Cc4cccnc4)N(C)C(=O)[C@H](CCCC)NC(=O)[C@H](Cc4ccccc4F)NC1=O)(C2)C3 [compound 162, cyclo(F-NMeA-3Pal-Nle-Phe2F-Nle-NMe3Pal-amBCP)] (cyclo(F[NMeA][3Pal][Nle][Phe(2-F)][Nle][NMe3Pal][X1]))",6.51
10,"CCCC[C@@H]1NC(=O)[C@H](Cc2ccc(O)cc2)NC(=O)[C@H](CC(C)C)NC(=O)[C@H](Cc2ccc(O)cc2)NC(=O)[C@H](CCCNC(=N)N)NC(=O)[C@H](Cc2ccc(F)cc2)NC(=O)CSCCNC(=O)[C@H](Cc2ccccc2)N(C)C1=O [compound 75, cyclo(Phe4F-R-Y-L-Y-Nle-NMeF-Cysteamine-ClAc)] (cyclo(LY[Nle][NMeF][NHCH2CH2SCH2CO][Phe(4-F)]RY))",5.60
11,"CC(C)CC[C@@H]1NC(=O)[C@H](Cc2ccccc2F)NC(=O)[C@H](CC(F)F)NC(=O)[C@H](Cc2cncnc2)NC(=O)[C@H](C)N(C)C(=O)[C@H](Cc2ccccc2)OC(=O)C23CC(CNC(=O)[C@H](Cc4ccccc4)N(C)C1=O)(C2)C3 [compound 304, cyclo(FLac-NMeA-PyrimAla-AbuF2-Phe2F-hL-NMeF-amBCP)] (cyclo([NMeA][Ala(pyrimidin-5-yl)][Abu(4,4-F2)][Phe(2-F)][hLeu][NMeF][X1][PhLac]))",7.77
12,"CCCCC[C@@H]1NC(=O)[C@H](Cc2ccc(OC)cc2)NC(=O)[C@H](CC2CCC2)NC(=O)[C@H](Cc2ccc(NC(=N)N)cc2)NC(=O)[C@H](CCCNC(=N)NC)N(C)C(=O)[C@H](Cc2ccccc2)NC(=O)CSC[C@@](C)(C(N)=O)NC(=O)[C@H](Cc2ccccc2)N(C)C1=O [compound 380, cyclo(F-NMeArgMe-Phe4Gn-cBuA-TyrOMe-Abp-NMeF-aMeCl-ClAc)] ({CH2CO}-F[NMeArg(Me)][Phe(4-guanidino)][Cba]Y(Me)[Ahp(2)][NMeF][αMeC]-NH2; thioether N-8)",8.78
13,"CCCC[C@@H]1NC(=O)[C@H](Cc2ccc(O)cc2)NC(=O)[C@H](CC(C)C)NC(=O)[C@H](Cc2ccc(O)cc2)NC(=O)[C@H](CCCNC(=N)N)NC(=O)[C@H](Cc2ccc(Cl)cc2)NC(=O)CSCCNC(=O)[C@H](Cc2ccccc2)N(C)C1=O [compound 74, cyclo(-Phe4Cl-R-Y-L-Y-Nle-NMeF-Cysteamine-ClAc)] (cyclo(LY[Nle][NMeF][NHCH2CH2SCH2CO][Phe(4-Cl)]RY))",5.15
14,"CCCCC[C@@H]1NC(=O)[C@H](Cc2ccc(O)cc2)NC(=O)[C@H](CC(C)C)NC(=O)[C@H](Cc2ccc(O)cc2)NC(=O)[C@H](CCCNC(=N)N)NC(=O)[C@H](Cc2cccc3ccccc23)NC(=O)CSC[C@@H](C(N)=O)NC(=O)[C@H](Cc2ccccc2)N(C)C1=O [compound 7, cyclo(INal-R-Y-L-Y-Ahp-NMeF-Cl-ClAc)] ({CH2CO}-[1Nal]RYLY[Ahp(2)][NMeF]C-NH2; thioether N-8)",5.79

# Same assay, conditions: listed as 189
row,SMILES,pEC50
1,"COc1ccc(C[C@@H]2NC(=O)[C@H](CC3CCC3)NC(=O)[C@H](Cc3cccnc3)NC(=O)[C@H](CCCNC(=N)N)NC(=O)[C@H](Cc3ccccc3)NC(=O)CSC[C@](C)(C(N)=O)NC(=O)[C@@H]3CCCCCCC[C@H](NC2=O)C(=O)N3C)cc1 (single isomer, unassigned) [SEQ ID NO: 189]",5.81
